The text below walks through data of patent publication US9012512B2, “Aqueous extracts from monocotyledon plants and their use in cardioprotection” (priority 2008, dated 2015).

Holding throughout (type): cell-based
Experiment [1] relates to rat thoracic aorta. In words: Combined vasorelaxing effects of TAA with GTN or SNP: phenylephrine-induced tension in rat thoracic aorta. To be noted: 0.1 μM agent alone; control vehicle 2.1 g. The procedure:
The rats were allowed to acclimate in environmentally controlled quarters (20-22° C. with 12:12 hr light-dark cycles). […] After equilibration, the aortic rings were stabilized with a near maximal contraction induced by 0.3 μM phenylephrine. When the rings achieved a stable level of contraction, 3 μM acetylcholine was added to the bath, in which the aorta rings were soaked, to assess endothelial integrity. Intimas were gently frayed with a cotton swab to disrupt the endothelium.

The test system of experiment [2] is rat thoracic aorta. As to the kind of experiment: Vasorelaxing effect on phenylephrine-induced contraction of rat thoracic aortic rings.
Experiment [3] relates to rat thoracic aorta. In words: Relaxation of phenylephrine-contracted rat aortic rings in the presence of acetylcholine. To be noted: 0.3 μM phenylephrine, acetylcholine 3 μM present. On the procedure: Male Sprague-Dawley rats, weighing 250-350 g (Laboratory Animal Science Center of the National Yang-Ming University, Taipei, Taiwan), were used in this study. The rats were allowed to acclimate in environmentally controlled quarters (20-22° C. with 12:12 hr light-dark cycles). Thoracic aorta was excised carefully and fixed isometrically in organ chambers (15 mL) containing a 37° C. modified Krebs' solution (120 mM NaCl, 4.5 mM KCl, 2.5 mM CaCl2, 1 mM MgSO4, 27 mM NaHCO3, 1 mM KH2PO4, 10 mM glucose, pH 7.4) through which a mixture of 95% O2-5% CO2 was continuously supplied. The aortic rings of 3-4 mm were equilibrated under passive tension of 1.8 g for 60 min. After equilibration, the aortic rings were stabilized with a near maximal contraction induced by 0.3 μM phenylephrine. When the rings achieved a stable level of contraction, 3 μM acetylcholine was added to the bath, in which the aorta rings were soaked, to assess endothelial integrity. Intimas were gently frayed with a cotton swab to disrupt the endothelium.
The relaxation effect of TAA on rat thoracic aorta in the presence of acetylcholine was also investigated. Vascular contraction in rat aortic rings was induced by 0.3 μM phenylephrine as described above. Acetylcholine (3 μM) was added to the bath, in which the aortic rings were soaked, to assess endothelial integrity. […]

Molecules are shown by their SMILES.

With `O=[N+]([O-])OCC(CO[N+](=O)[O-])O[N+](=O)[O-]` [GTN, glyceryltrinitrate], the phenylephrine-induced tension in the experiment on rat thoracic aorta [1] came to 1.3 g.

For `O=C(O)/C=C(\CC(=O)O)C(=O)O` [TAA, trans-aconitic acid], the maximum relaxation induced in the experiment on rat thoracic aorta [2] (TAA 100 μM, contraction induced by 10 μM phenylephrine, n=16) turned out to be 40%. Besides, the “vasorelaxing effect in rat thoracic aorta” value in the experiment on rat thoracic aorta [2] (TAA 100 μM, phenylephrine precontracted aortic rings) was “significant vasorelaxing effect”. Also, the “relaxation in phenylephrine-induced contraction” value in the experiment on rat thoracic aorta [2] (endothelium-intact preparations) is recorded as “concentration-dependent relaxation”. For the same molecule, in the experiment with rat thoracic aorta [3] (TAA 100 μM, n=16), the increase of relaxation was 55%. Moreover, the relaxation levels result in the experiment with rat thoracic aorta [3] (TAA 0.1-100 μM) is “significant increase of relaxation levels”.
